Assay results as given in ChEMBL document CHEMBL1121859, “Photochemical inactivation of the angiotensin receptor of rabbit aorta by N alpha-(2-nitro-5-azidobenzoyl)-[1-aspartic acid,5-isoleucine]angiotensin II” (1981).

Legend:
[1] = species on record: Oryctolagus cuniculus; assay: Compound was tested for the inhibition of nitroazidobenzoyl-angiotensin II induced contraction of rabbit aortic strips; format: functional; conditions: Aorta, read-out: ED50 (the source's name)
[2] = species on record: Oryctolagus cuniculus; assay: Compound was tested for the inhibition of nitroazidobenzoyl-angiotensin II induced contraction of rabbit aortic strips; pD2 is the negative logarithm of ED50; format: functional, Aorta

Row | EC50 [1] | Compound | pD2 [2]
1 | 60.4 nM | CC[C@H](C)[C@H](NC(=O)[C@H](Cc1ccc(O)cc1)NC(=O)[C@@H](NC(=O)[C@H](CCCN=C(N)N)NC(=O)[C@H](CC(=O)O)NC(=O)c1cc(N=[N+]=[N-])ccc1[N+](=O)[O-])C(C)C)C(=O)N[C@@H](Cc1c[nH]cn1)C(=O)N1CCC[C@H]1C(=O)N[C@@H](Cc1ccccc1)C(=O)O | 7.22
2 | 3.63 nM | CC[C@H](C)[C@H](NC(=O)[C@H](Cc1ccc(O)cc1)NC(=O)[C@@H](NC(=O)[C@H](CCCNC(=N)N)NC(=O)[C@@H](N)CC(=O)O)C(C)C)C(=O)N[C@@H](Cc1cnc[nH]1)C(=O)N1CCC[C@H]1C(=O)N[C@@H](Cc1ccccc1)C(=O)O [ANGIOTENSIN II] | 8.44
